Several values for one entry are separate records, joined by “and”; a condition that tells them apart may be missing. Equal values may be shown once. Read-outs that look alike come from different tables or passages of the source. Values belong to the compound of their own block, whether it stands above or below them.
Experiments:
[1] = test system: H1975 cells; test: CCK-8 antiproliferation assay, H1975; details: for Inhibitory efficacy: H1975 cells; for IC50: NCI-H1975, 48 h, read-out: IC50 (μM) H1975, CCK-8, 48 h, average ± SD of three independent experiments
[2] = test system: A549 cells; test: CCK-8 antiproliferation assay, A549; details: for Inhibitory efficacy: A549 cells; for IC50: A549, 48 h, read-out: IC50 (μM) A549, CCK-8, 48 h, average ± SD of three independent experiments
[3] = molecular target: wild-type EGFR (Homo sapiens, UniProt P00533); test: EGFR kinase assay (ELISA); details: for IC50: IC50 (μM) EGFR, ELISA, 3 μmol/L ATP; for A450: raw ELISA absorbance
Chain of wild-type EGFR (P00533 25-1210): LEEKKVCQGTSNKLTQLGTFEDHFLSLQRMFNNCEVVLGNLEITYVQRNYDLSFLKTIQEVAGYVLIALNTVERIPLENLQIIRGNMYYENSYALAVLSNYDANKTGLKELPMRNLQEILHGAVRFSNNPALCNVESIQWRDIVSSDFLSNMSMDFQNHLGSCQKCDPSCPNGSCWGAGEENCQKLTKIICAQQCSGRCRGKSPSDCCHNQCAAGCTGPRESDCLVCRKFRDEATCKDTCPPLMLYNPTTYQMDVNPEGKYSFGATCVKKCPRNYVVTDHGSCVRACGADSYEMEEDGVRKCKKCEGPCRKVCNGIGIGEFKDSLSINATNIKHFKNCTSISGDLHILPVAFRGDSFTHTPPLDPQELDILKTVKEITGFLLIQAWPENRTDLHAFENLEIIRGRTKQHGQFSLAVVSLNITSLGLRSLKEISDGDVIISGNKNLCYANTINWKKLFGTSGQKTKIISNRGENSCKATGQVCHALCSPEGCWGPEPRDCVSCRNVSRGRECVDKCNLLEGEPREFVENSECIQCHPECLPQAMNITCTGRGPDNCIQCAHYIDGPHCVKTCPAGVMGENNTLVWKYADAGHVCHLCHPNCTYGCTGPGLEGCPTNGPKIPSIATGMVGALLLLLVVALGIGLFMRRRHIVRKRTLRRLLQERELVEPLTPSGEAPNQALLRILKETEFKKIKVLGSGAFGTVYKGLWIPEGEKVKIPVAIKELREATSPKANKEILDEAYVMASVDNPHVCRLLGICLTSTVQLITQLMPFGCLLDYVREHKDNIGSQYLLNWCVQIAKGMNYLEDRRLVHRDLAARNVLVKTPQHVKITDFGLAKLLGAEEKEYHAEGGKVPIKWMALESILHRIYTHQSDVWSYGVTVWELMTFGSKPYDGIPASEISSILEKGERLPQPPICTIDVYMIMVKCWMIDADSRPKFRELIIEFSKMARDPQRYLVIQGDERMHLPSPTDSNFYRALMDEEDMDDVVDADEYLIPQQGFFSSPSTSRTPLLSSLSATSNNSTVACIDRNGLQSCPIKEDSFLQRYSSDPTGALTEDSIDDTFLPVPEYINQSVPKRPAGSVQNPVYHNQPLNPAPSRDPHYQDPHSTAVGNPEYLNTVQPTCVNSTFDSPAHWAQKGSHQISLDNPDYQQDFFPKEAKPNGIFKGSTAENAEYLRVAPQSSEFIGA

[4] = test system: H460 cells; test: CCK-8 antiproliferation assay, H460; details: for IC50: NCI-H460, 48 h, read-out: IC50 (μM) H460, CCK-8, 48 h, average ± SD of three independent experiments
[5] = test system: PC-9 cells; test: CCK-8 antiproliferation assay, PC-9; details: for IC50 / inhibition at 4 µM / inhibition at 8 µM / inhibition at 16 µM: Homo sapiens; for IC50: PC-9, 48 h, read-out: IC50 (μM) PC-9; for inhibition at 4 µM: PC-9, read-out: Inhibitory efficacy, PC-9, 4uM, single repeats (Repeat 1-3), given as fraction; for inhibition at 8 µM: PC-9, read-out: Inhibitory efficacy, PC-9, 8uM, single repeats (Repeat 1-3), given as fraction; for inhibition at 16 µM: PC-9, read-out: Inhibitory efficacy, PC-9, 16uM, single repeats (Repeat 1-3), given as fraction; for Inhibitory efficacy: single repeats (Repeat 1-3), given as fraction
[6] = 1uM, given as fraction, Repeat 1-3
[7] = 2uM, given as fraction, Repeat 1-3
[8] = 4uM, given as fraction, Repeat 1-3
[9] = 8uM, given as fraction, Repeat 1-3
[10] = 16uM, given as fraction, Repeat 1-3
[11] = Homo sapiens, NCI-H1975, read-out: Inhibitory efficacy, H1975 cells, 8uM, given as fraction, Repeat 1-3
[12] = Homo sapiens, NCI-H1975, read-out: Inhibitory efficacy, H1975 cells, 16uM, given as fraction, Repeat 1-3
[13] = Homo sapiens, A549, read-out: Inhibitory efficacy, A549 cells, 8uM, given as fraction, Repeat 1-3
[14] = Homo sapiens, A549, read-out: Inhibitory efficacy, A549 cells, 16uM, given as fraction, Repeat 1-3

IC50 ([1]; Homo sapiens): 7.19 ± 0.68 µM
IC50 ([2]; Homo sapiens): 23 ± 0.75 µM
inhibition at 0.0003 µM ([3]; 0.3 nM, duplicate wells, calculated from A450): 14.4%
Inhibition ([3]; 0.3 nM, duplicate wells, calculated from A450, 0.0003 µM): 7.895
inhibition at 0.003 µM ([3]; 3 nM, duplicate wells, calculated from A450): 15.7%
Inhibition ([3]; 3 nM, duplicate wells, calculated from A450, 0.003 µM): 18.5965
inhibition at 0.03 µM ([3]; 30 nM, duplicate wells, calculated from A450): 17.9%
Inhibition ([3]; 30 nM, duplicate wells, calculated from A450, 0.03 µM): 21.4035
inhibition at 0.3 µM ([3]; 300 nM, duplicate wells, calculated from A450): 28.8%
Inhibition ([3]; 300 nM, duplicate wells, calculated from A450, 0.3 µM): 23.1579
inhibition at 3 µM ([3]; 3000 nM, duplicate wells, calculated from A450): 43%
Inhibition ([3]; 3000 nM, duplicate wells, calculated from A450, 3 µM): 40.5263
inhibition at 30 µM ([3]; 30000 nM, duplicate wells, calculated from A450): 91%
Inhibition ([3]; 30000 nM, duplicate wells, calculated from A450, 30 µM): 89.8246
IC50 [3]: 1.99 µM
melting point: 131 to 134 °C
IC50 ([4]; Homo sapiens): 4.18 ± 0.49 µM
IC50 [5]: > 100 µM
Structure (SMILES): COCCOc1cc2ncnc(Nc3cccc(-c4cn(-c5ccccc5Cl)nn4)c3)c2cc1OCCOC [e8, [6,7-Bis-(2-methoxy-ethoxy)-quinazolin-4-yl]-{3-[1-(2-chloro-phenyl)-1H-[1,2,3]triazol-4-yl]-phenyl}-amine]
Inhibitory efficacy [1, 6]: 0.1767 and 0.1612
Inhibitory efficacy [1, 7]: 0.1999 and 0.1391
Inhibitory efficacy [1, 8]: 0.3925 and 0.388
Inhibitory efficacy [1, 9]: 0.5795 and 0.574
Inhibitory efficacy [1, 10]: 0.6879 and 0.6171
inhibition at 1 µM ([1]; Homo sapiens, NCI-H1975, read-out: Inhibitory efficacy, H1975 cells, 1uM, given as fraction, Repeat 1-3): 16.1%
inhibition at 2 µM ([1]; Homo sapiens, NCI-H1975, read-out: Inhibitory efficacy, H1975 cells, 2uM, given as fraction, Repeat 1-3): 19.8%
inhibition at 4 µM ([1]; Homo sapiens, NCI-H1975, read-out: Inhibitory efficacy, H1975 cells, 4uM, given as fraction, Repeat 1-3): 39.9%
inhibition at 8 µM [1, 11]: 51.1%
inhibition at 16 µM [1, 12]: 64.1%
Inhibitory efficacy [2, 9]: 0.2217 and 0.2238
Inhibitory efficacy [2, 10]: 0.3678 and 0.3836
inhibition at 8 µM [2, 13]: 18.4%
inhibition at 16 µM [2, 14]: 42.9%
Inhibitory efficacy ([4]; H460, 1uM, single repeats (Repeat 1-3), given as fraction, 1 µM): 0.1177 and 0.197
Inhibitory efficacy ([4]; H460, 2uM, single repeats (Repeat 1-3), given as fraction, 2 µM): 0.3433 and 0.3114
Inhibitory efficacy ([4]; H460, 4uM, single repeats (Repeat 1-3), given as fraction, 4 µM): 0.6025 and 0.5869
Inhibitory efficacy ([4]; H460, 8uM, single repeats (Repeat 1-3), given as fraction, 8 µM): 0.6548 and 0.6973
Inhibitory efficacy ([4]; H460, 16uM, single repeats (Repeat 1-3), given as fraction, 16 µM): 0.6875 and 0.7414
inhibition at 1 µM ([4]; Homo sapiens, NCI-H460, read-out: Inhibitory efficacy, H460, 1uM, single repeats (Repeat 1-3), given as fraction): 14.2%
inhibition at 2 µM ([4]; Homo sapiens, NCI-H460, read-out: Inhibitory efficacy, H460, 2uM, single repeats (Repeat 1-3), given as fraction): 35.8%
inhibition at 4 µM ([4]; Homo sapiens, NCI-H460, read-out: Inhibitory efficacy, H460, 4uM, single repeats (Repeat 1-3), given as fraction): 48.3%
inhibition at 8 µM ([4]; Homo sapiens, NCI-H460, read-out: Inhibitory efficacy, H460, 8uM, single repeats (Repeat 1-3), given as fraction): 66.5%
inhibition at 16 µM ([4]; Homo sapiens, NCI-H460, read-out: Inhibitory efficacy, H460, 16uM, single repeats (Repeat 1-3), given as fraction): 66.8%
inhibition at 4 µM [5]: 17.4%
inhibition at 8 µM [5]: 26.3%
inhibition at 16 µM [5]: 13.4%
Inhibitory efficacy ([5]; PC-9, 4uM, 4 µM): 0.2895 and 0.3075
Inhibitory efficacy ([5]; PC-9, 8uM, 8 µM): 0.1686 and 0.3213
Inhibitory efficacy ([5]; PC-9, 16uM, 16 µM): 0.1771 and 0.2089

IC50 ([1]; Homo sapiens): 15.3 ± 1.55 µM
IC50 ([2]; Homo sapiens): 5.75 ± 0.48 µM
IC50 [3]: 32.5 µM
Inhibition ([3]; concentration 0.03 nM, one value per replicate column, 3e-05 µM): 19.0252 and 4.409
Inhibition ([3]; concentration 0.3 nM, one value per replicate column, 0.0003 µM): 9.134
inhibition at 0.003 µM ([3]; concentration 3 nM, one value per replicate column): 19.8%
Inhibition ([3]; concentration 3 nM, one value per replicate column, 0.003 µM): 15.5906
inhibition at 0.03 µM ([3]; concentration 30 nM, one value per replicate column): 23.4%
Inhibition ([3]; concentration 30 nM, one value per replicate column, 0.03 µM): 15.748
inhibition at 0.3 µM ([3]; concentration 300 nM, one value per replicate column): 27%
Inhibition ([3]; concentration 300 nM, one value per replicate column, 0.3 µM): 20.1575
inhibition at 3 µM ([3]; concentration 3000 nM, one value per replicate column): 29.6%
Inhibition ([3]; concentration 3000 nM, one value per replicate column, 3 µM): 27.7165
inhibition at 30 µM ([3]; concentration 30000 nM, one value per replicate column): 60.1%
Inhibition ([3]; concentration 30000 nM, one value per replicate column, 30 µM): 60
A450 ([3]; concentration 0.0001 nM): 0.901 and 0.865
A450 ([3]; concentration 0.03 nM): 0.78 and 0.837
A450 ([3]; concentration 0.3 nM): 0.775 and 0.807
A450 ([3]; concentration 3 nM): 0.775 and 0.766
A450 ([3]; concentration 30 nM): 0.752 and 0.765
A450 ([3]; concentration 300 nM): 0.729 and 0.737
A450 ([3]; concentration 3000 nM): 0.713 and 0.689
A450 ([3]; concentration 30000 nM): 0.519 and 0.484
melting point: 113 to 116 °C
IC50 ([4]; Homo sapiens): 10.9 ± 0.39 µM
IC50 [5]: 7.71 ± 1.15 µM
Structure (SMILES): COCCOc1cc2ncnc(Nc3cccc(-c4cn(-c5ccccc5C(F)(F)F)nn4)c3)c2cc1OCCOC [e16, [6,7-Bis-(2-methoxy-ethoxy)-quinazolin-4-yl]-{3-[1-(2-trifluoromethyl-phenyl)-1H-[1,2,3]triazol-4-yl]-phenyl}-amine]
Inhibitory efficacy [1, 9]: 0.3646 and 0.348
Inhibitory efficacy [1, 10]: 0.506 and 0.5045
inhibition at 8 µM [1, 11]: 44%
inhibition at 16 µM [1, 12]: 48%
Inhibitory efficacy [2, 6]: 0.2305 and 0.3107
Inhibitory efficacy [2, 7]: 0.2917 and 0.3288
Inhibitory efficacy [2, 8]: 0.4966 and 0.48
Inhibitory efficacy [2, 9]: 0.5015 and 0.5395
Inhibitory efficacy [2, 10]: 0.6478 and 0.6577
inhibition at 1 µM ([2]; Homo sapiens, A549, read-out: Inhibitory efficacy, A549 cells, 1uM, given as fraction, Repeat 1-3): 15.9%
inhibition at 2 µM ([2]; Homo sapiens, A549, read-out: Inhibitory efficacy, A549 cells, 2uM, given as fraction, Repeat 1-3): 32.3%
inhibition at 4 µM ([2]; Homo sapiens, A549, read-out: Inhibitory efficacy, A549 cells, 4uM, given as fraction, Repeat 1-3): 54.2%
inhibition at 8 µM [2, 13]: 54.2%
inhibition at 16 µM [2, 14]: 64%
Inhibitory efficacy ([4]; H460 cells, 4uM, given as fraction, Repeat 1-3): 0.2156 and 0.191
Inhibitory efficacy ([4]; H460 cells, 8uM, given as fraction, Repeat 1-3): 0.4491 and 0.447
Inhibitory efficacy ([4]; H460 cells, 16uM, given as fraction, Repeat 1-3): 0.6066 and 0.6034
inhibition at 4 µM ([4]; Homo sapiens, NCI-H460, read-out: Inhibitory efficacy, H460 cells, 4uM, given as fraction, Repeat 1-3): 21.3%
inhibition at 8 µM ([4]; Homo sapiens, NCI-H460, read-out: Inhibitory efficacy, H460 cells, 8uM, given as fraction, Repeat 1-3): 49.5%
inhibition at 16 µM ([4]; Homo sapiens, NCI-H460, read-out: Inhibitory efficacy, H460 cells, 16uM, given as fraction, Repeat 1-3): 57.3%
inhibition at 4 µM [5]: 49.1%
inhibition at 8 µM [5]: 56.9%
inhibition at 16 µM [5]: 60.8%
Inhibitory efficacy ([5]; PC-9, 4uM, 4 µM): 0.4427 and 0.4497
Inhibitory efficacy ([5]; PC-9, 8uM, 8 µM): 0.7173 and 0.5415
Inhibitory efficacy ([5]; PC-9, 16uM, 16 µM): 0.5494 and 0.5275

Source: publication PMC8776995 (Frontiers in Chemistry, 2022)
